US12522607B2, “Substituted pyrazolo[3,4-d]pyrimidines as wee-1 inhibitors” (WIGEN BIOMEDICINE TECHNOLOGY (SHANGHAI) CO., LTD., priority 2020, dated 2026)

Columns and labels:
[1] = system: HT29 cells; assay: Antiproliferative activity against HT29 cells (Cell Titer-Lumi, ATP content); format: cell-based; conditions: Homo sapiens, HT-29, 72 after compound addition, read-out: HT-29 cells Anti-proliferative activity (IC50 for the inhibition against HT-29 cell growth)
Method in brief: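 Growth inhibition IC50 derived from luminescent ATP content after 72 (units as printed) of compound exposure over a dilution gradient. Seeding density 3000 cells per well; compound added once cells had adhered overnight.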

[2] = molecular target: T1, Wee-1 kinase (Homo sapiens, UniProt P30291); assay: Inhibitory activity against Wee-1 kinase (Lanthra Screen Wee-1 kinase kit, Tracer 178); format: binding; conditions: Wee-1 kinase 5 nM, Tracer 178 50 nM, 1 h room temperature
T1 construct: purchased Invitrogen
Method in brief: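 Compound gradient in DMSO mixed with 5 nM Wee-1, 2 nM Eu-anti-GST antibody and 50 nM Tracer 178 (all final). Read after one hour at room temperature; IC50 calculated against the DMSO solvent control.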

T1 sequence (P30291 whole entry): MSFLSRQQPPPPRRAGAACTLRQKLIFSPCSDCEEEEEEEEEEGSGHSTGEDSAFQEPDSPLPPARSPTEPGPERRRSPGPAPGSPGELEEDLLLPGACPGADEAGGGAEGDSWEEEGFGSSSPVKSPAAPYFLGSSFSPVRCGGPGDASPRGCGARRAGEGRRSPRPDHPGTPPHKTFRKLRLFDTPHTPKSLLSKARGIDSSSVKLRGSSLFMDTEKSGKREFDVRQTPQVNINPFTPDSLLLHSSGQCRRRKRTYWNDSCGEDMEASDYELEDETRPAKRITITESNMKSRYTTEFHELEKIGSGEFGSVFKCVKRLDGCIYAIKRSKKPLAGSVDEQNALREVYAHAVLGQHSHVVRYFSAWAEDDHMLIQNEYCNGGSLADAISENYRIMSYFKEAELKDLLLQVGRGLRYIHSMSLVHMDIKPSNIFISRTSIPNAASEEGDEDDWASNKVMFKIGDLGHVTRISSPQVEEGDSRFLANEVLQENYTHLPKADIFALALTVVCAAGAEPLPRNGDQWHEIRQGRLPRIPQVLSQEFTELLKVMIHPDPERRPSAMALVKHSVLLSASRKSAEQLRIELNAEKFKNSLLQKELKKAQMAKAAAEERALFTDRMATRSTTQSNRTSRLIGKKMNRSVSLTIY

| SMILES | IC50 [1] [µM] | IC50 [2] [µM] |
| --- | --- | --- |
| C=CCn1c(=O)c2cnc(Nc3ccc(N4CC5(CN(C)C5)C4)c(C)c3)nc2n1-c1ccc(=O)n(C(C)C)n1 [Compound 158] | ≤ 1 | ≤ 0.03 |
| C=CCn1c(=O)c2cnc(Nc3ccc(N4CC5(CN(C)C5)C4)c(OC)c3)nc2n1-c1ccc(=O)n(C(C)C)n1 [Compound 159] | ≤ 1 | ≤ 0.03 |
| C=CCn1c(=O)c2cnc(Nc3ccc(N4CC5(CCNC5)C4)cc3)nc2n1-c1ccc(=O)n(C(C)C)n1 [Compound 160] | 1 to 3 | ≤ 0.03 |
| C=CCn1c(=O)c2cnc(Nc3ccc(N4CC5(CCNC5)C4)c(C)c3)nc2n1-c1ccc(=O)n(C(C)C)n1 [Compound 161] | 1 to 3 | ≤ 0.03 |
| C=CCn1c(=O)c2cnc(Nc3ccc(N4CC5(CCNC5)C4)c(OC)c3)nc2n1-c1ccc(=O)n(C(C)C)n1 [Compound 162] | ≤ 1 | ≤ 0.03 |
| C=CCn1c(=O)c2cnc(Nc3ccc(N4CC5(CCN(C)C5)C4)cc3)nc2n1-c1ccc(=O)n(C(C)C)n1 [Compound 163] | ≤ 1 | ≤ 0.03 |
| C=CCn1c(=O)c2cnc(Nc3ccc(N4CC5(CCN(C)C5)C4)c(C)c3)nc2n1-c1ccc(=O)n(C(C)C)n1 [Compound 164] | ≤ 1 | ≤ 0.03 |
| C=CCn1c(=O)c2cnc(Nc3ccc(N4CC5(CCN(C)C5)C4)c(OC)c3)nc2n1-c1ccc(=O)n(C(C)C)n1 [Compound 165] | ≤ 1 | ≤ 0.03 |
| C=CCn1c(=O)c2cnc(Nc3ccc(N4CC5(CCNCC5)C4)cc3)nc2n1-c1ccc(=O)n(C(C)C)n1 [Compound 166] | 1 to 3 | 0.03 to 0.1 |
| C=CCn1c(=O)c2cnc(Nc3ccc(N4CC5(CCNCC5)C4)c(C)c3)nc2n1-c1ccc(=O)n(C(C)C)n1 [Compound 167] | 1 to 3 | 0.03 to 0.1 |
| C=CCn1c(=O)c2cnc(Nc3ccc(N4CC5(CCNCC5)C4)c(OC)c3)nc2n1-c1ccc(=O)n(C(C)C)n1 [Compound 168] | 1 to 3 | 0.03 to 0.1 |
| C=CCn1c(=O)c2cnc(Nc3ccc(N4CCC5(CNC5)C4)cc3)nc2n1-c1ccc(=O)n(C(C)C)n1 [Compound 169] | 1 to 3 | ≤ 0.03 |
| C=CCn1c(=O)c2cnc(Nc3ccc(N4CCC5(CNC5)C4)c(C)c3)nc2n1-c1ccc(=O)n(C(C)C)n1 [Compound 170] | ≤ 1 | ≤ 0.03 |
| C=CCn1c(=O)c2cnc(Nc3ccc(N4CCC5(CNC5)C4)c(OC)c3)nc2n1-c1ccc(=O)n(C(C)C)n1 [Compound 171] | ≤ 1 | ≤ 0.03 |
| C=CCn1c(=O)c2cnc(Nc3ccc(N4CCC5(CN(C)C5)C4)cc3)nc2n1-c1ccc(=O)n(C(C)C)n1 [Compound 172] | ≤ 1 | ≤ 0.03 |
| C=CCn1c(=O)c2cnc(Nc3ccc(N4CCC5(CN(C)C5)C4)c(C)c3)nc2n1-c1ccc(=O)n(C(C)C)n1 [Compound 173] | ≤ 1 | ≤ 0.03 |
| C=CCn1c(=O)c2cnc(Nc3ccc(N4CCC5(CN(C)C5)C4)c(OC)c3)nc2n1-c1ccc(=O)n(C(C)C)n1 [Compound 174] | ≤ 1 | ≤ 0.03 |
| C=CCn1c(=O)c2cnc(Nc3ccc(N4CCC5(CC4)CNC5)cc3)nc2n1-c1ccc(=O)n(C(C)C)n1 [Compound 175] | 1 to 3 | ≤ 0.03 |
| C=CCn1c(=O)c2cnc(Nc3ccc(N4CCC5(CC4)CNC5)c(C)c3)nc2n1-c1ccc(=O)n(C(C)C)n1 [Compound 176] | ≤ 1 | ≤ 0.03 |
| C=CCn1c(=O)c2cnc(Nc3ccc(N4CCC5(CC4)CNC5)c(OC)c3)nc2n1-c1ccc(=O)n(C(C)C)n1 [Compound 177] | ≤ 1 | ≤ 0.03 |
| C=CCn1c(=O)c2cnc(Nc3ccc(N4CCC5(CC4)CN(C)C5)cc3)nc2n1-c1ccc(=O)n(C(C)C)n1 [Compound 178] | ≤ 1 | ≤ 0.03 |
| C=CCn1c(=O)c2cnc(Nc3ccc(N4CCC5(CC4)CN(C)C5)c(C)c3)nc2n1-c1ccc(=O)n(C(C)C)n1 [Compound 179] | ≤ 1 | ≤ 0.03 |
| C=CCn1c(=O)c2cnc(Nc3ccc(N4CCC5(CC4)CN(C)C5)c(OC)c3)nc2n1-c1ccc(=O)n(C(C)C)n1 [Compound 180] | ≤ 1 | ≤ 0.03 |
| C=CCn1c(=O)c2cnc(Nc3ccc(N4CCC5(CCNCC5)CC4)cc3)nc2n1-c1ccc(=O)n(C(C)C)n1 [Compound 181] | 1 to 3 | ≤ 0.03 |
| C=CCn1c(=O)c2cnc(Nc3ccc(N4CCC5(CCNCC5)CC4)c(C)c3)nc2n1-c1ccc(=O)n(C(C)C)n1 [Compound 182] | ≤ 1 | ≤ 0.03 |
| C=CCn1c(=O)c2cnc(Nc3ccc(N4CCC5(CCNCC5)CC4)c(OC)c3)nc2n1-c1ccc(=O)n(C(C)C)n1 [Compound 183] | ≤ 1 | ≤ 0.03 |
| C=CCn1c(=O)c2cnc(Nc3ccc(N4CCC5(CCN(C)CC5)CC4)cc3)nc2n1-c1ccc(=O)n(C(C)C)n1 [Compound 184] | ≤ 1 | ≤ 0.03 |

| SMILES | IC50 [1] [µM] | IC50 [2] [µM] |
| --- | --- | --- |
| C=CCn1c(=O)c2cnc(Nc3ccc(N4CCC5(CCN(C)CC5)CC4)c(C)c3)nc2n1-c1ccc(=O)n(C(C)C)n1 [Compound 185] | ≤ 1 | ≤ 0.03 |
| C=CCn1c(=O)c2cnc(Nc3ccc(N4CCC5(CCN(C)CC5)CC4)c(OC)c3)nc2n1-c1ccc(=O)n(C(C)C)n1 [Compound 186] | ≤ 1 | ≤ 0.03 |
| C=CCn1c(=O)c2cnc(Nc3ccc(N4CC5(CCN5C)C4)c(C)c3)nc2n1-c1ccc(=O)n(C(C)C)n1 [Compound 187] | ≤ 1 | ≤ 0.03 |
| C=CCn1c(=O)c2cnc(Nc3ccc(N4CC5(CCCN5C)C4)c(C)c3)nc2n1-c1ccc(=O)n(C(C)C)n1 [Compound 188] | ≤ 1 | ≤ 0.03 |
| C=CCn1c(=O)c2cnc(Nc3ccc(N4CC5(CCCCN5C)C4)c(C)c3)nc2n1-c1ccc(=O)n(C(C)C)n1 [Compound 189] | ≤ 1 | 0.03 to 0.1 |
| C=CCn1c(=O)c2cnc(Nc3ccc(C4CCNCC4)cc3)nc2n1-c1ccc(=O)n(C(C)C)n1 [Compound 190] | ≤ 1 | ≤ 0.03 |
| C=CCn1c(=O)c2cnc(Nc3ccc(C4CCN(C)CC4)cc3)nc2n1-c1ccc(=O)n(C(C)C)n1 [Compound 191] | ≤ 1 | ≤ 0.03 |
| C=CCn1c(=O)c2cnc(Nc3ccc(C4CCNCC4)c(C)c3)nc2n1-c1ccc(=O)n(C(C)C)n1 [Compound 192] | ≤ 1 | ≤ 0.03 |
| C=CCn1c(=O)c2cnc(Nc3ccc(C4CCN(C)CC4)c(C)c3)nc2n1-c1ccc(=O)n(C(C)C)n1 [Compound 193] | ≤ 1 | ≤ 0.03 |
| C=CCn1c(=O)c2cnc(Nc3ccc(C4CCNCC4)c(OC)c3)nc2n1-c1ccc(=O)n(C(C)C)n1 [Compound 194] | ≤ 1 | ≤ 0.03 |
| C=CCn1c(=O)c2cnc(Nc3ccc(C4CCN(C)CC4)c(OC)c3)nc2n1-c1ccc(=O)n(C(C)C)n1 [Compound 195] | ≤ 1 | ≤ 0.03 |
| C=CCn1c(=O)c2cnc(Nc3ccc(C4CCNCC4)c(C(F)(F)F)c3)nc2n1-c1ccc(=O)n(C(C)C)n1 [Compound 196] | ≤ 1 | ≤ 0.03 |
| C=CCn1c(=O)c2cnc(Nc3ccc(C4CCN(C)CC4)c(C(F)(F)F)c3)nc2n1-c1ccc(=O)n(C(C)C)n1 [Compound 197] | ≤ 1 | ≤ 0.03 |
| C=CCn1c(=O)c2cnc(Nc3ccc(C4CCNCC4)c(CC(F)(F)F)c3)nc2n1-c1ccc(=O)n(C(C)C)n1 [Compound 198] | ≤ 1 | ≤ 0.03 |
| C=CCn1c(=O)c2cnc(Nc3ccc(C4CCN(C)CC4)c(CC(F)(F)F)c3)nc2n1-c1ccc(=O)n(C(C)C)n1 [Compound 199] | ≤ 1 | ≤ 0.03 |
| C=CCn1c(=O)c2cnc(Nc3ccc(C4(C)CCNCC4)cc3)nc2n1-c1ccc(=O)n(C(C)C)n1 [Compound 200] | ≤ 1 | ≤ 0.03 |
| C=CCn1c(=O)c2cnc(Nc3ccc(C4(C)CCN(C)CC4)cc3)nc2n1-c1ccc(=O)n(C(C)C)n1 [Compound 201] | ≤ 1 | ≤ 0.03 |
| C=CCn1c(=O)c2cnc(Nc3ccc(C4(C)CCCNC4)cc3)nc2n1-c1ccc(=O)n(C(C)C)n1 (stereo not drawn) [Compound 202] | ≤ 1 | ≤ 0.03 |
| C=CCn1c(=O)c2cnc(Nc3ccc(C4(C)CCCN(C)C4)cc3)nc2n1-c1ccc(=O)n(C(C)C)n1 (stereo not drawn) [Compound 203] | ≤ 1 | ≤ 0.03 |
| C=CCn1c(=O)c2cnc(Nc3cccc(C4CCNCC4)c3)nc2n1-c1ccc(=O)n(C(C)C)n1 [Compound 204] | ≤ 1 | ≤ 0.03 |
| C=CCn1c(=O)c2cnc(Nc3cccc(C4CCN(C)CC4)c3)nc2n1-c1ccc(=O)n(C(C)C)n1 [Compound 205] | ≤ 1 | ≤ 0.03 |
| C=CCn1c(=O)c2cnc(Nc3cc(C)cc(C4CCNCC4)c3)nc2n1-c1ccc(=O)n(C(C)C)n1 [Compound 206] | ≤ 1 | ≤ 0.03 |
| C=CCn1c(=O)c2cnc(Nc3cc(C)cc(C4CCN(C)CC4)c3)nc2n1-c1ccc(=O)n(C(C)C)n1 [Compound 207] | ≤ 1 | ≤ 0.03 |
| C=CCn1c(=O)c2cnc(Nc3cc(F)cc(C4CCNCC4)c3)nc2n1-c1ccc(=O)n(C(C)C)n1 [Compound 208] | ≤ 1 | ≤ 0.03 |
| C=CCn1c(=O)c2cnc(Nc3cc(F)cc(C4CCN(C)CC4)c3)nc2n1-c1ccc(=O)n(C(C)C)n1 [Compound 209] | ≤ 1 | ≤ 0.03 |
| C=CCn1c(=O)c2cnc(Nc3cc(Cl)cc(C4CCNCC4)c3)nc2n1-c1ccc(=O)n(C(C)C)n1 [Compound 210] | ≤ 1 | ≤ 0.03 |
| C=CCn1c(=O)c2cnc(Nc3cc(Cl)cc(C4CCN(C)CC4)c3)nc2n1-c1ccc(=O)n(C(C)C)n1 [Compound 211] | ≤ 1 | ≤ 0.03 |
